Results published in patent US9416103B2, “Use of the aminoalkylindole JWH-073-M4 and related compounds as neutral CB1 receptor antagonists for the treatment of alcoholism, drug abuse, obesity, and obesity-related diseases” (The Board of Trustees of the University of Arkansas, priority 2012, dated 2016).
Where “and” joins values, the source holds several entries; their conditions need not be identical. Equal entries are not always repeated. Where two headings read alike, the source gives them in different places. Marks after values point to notes of the source that are not given here.

What was measured:
CB1Rs [1] = molecular target: T1, CB1Rs (Mus musculus (Mouse), UniProt P47746); test: Competition receptor binding with [3H]CP-55,940 in mouse brain homogenates
Experimental: (§1) Mouse brain homogenates for in vitro assays were prepared as previously described. Briefly, whole brains were harvested from B6SJL mice, snap-frozen in liquid nitrogen and stored at −80° C. On the day membrane homogenates were to be prepared, brains were thawed on ice, then pooled in a 40 mL Dounce glass homogenizer and suspended in 5 volumes of ice cold homogenization buffer (50 mM HEPES, pH 7.4, 3 mM MgCl2, and 1 mM EGTA). Brains were then subjected to 10 complete strokes with an A pestle, followed by centrifugation at 40,000×g for 10 minutes at +4° C. Resulting supernatants were discarded, and the pellet was resuspended, homogenized and centrifuged similarly twice more, with supernatants being discarded. For the final resuspension and homogenization with a B pestle, ice-cold 50 mM HEPES was used in place of homogenization buffer, and homogenates were aliquoted and stored at −80° C. Protein concentrations of homogenates were determined using the BCA™ Protein Assay (Thermo Scientific, Rockford, Ill.).
(§2) Competition receptor binding was performed as previously described. […] Reactions were terminated by rapid vacuum filtration through Whatman GF/B glass fiber filters, followed by five washes with ice-cold buffer (50 mM Tris, 0.05% BSA). Filters were immediately placed into 7 mL scintillation vials to which 4 mL of ScintiVerse™ BD Cocktail scintillation fluid (Fisher Scientific, Fair Lawn, N.J.) was added. Bound radioactivity was determined after overnight incubation at room temperature and shaking, by liquid scintillation spectrophotometry with an efficiency of 44% (Tri Carb 2100 TR Liquid Scintillation Analyzer, Packard Instrument Company, Meriden, Conn.). Specific binding is expressed as total binding minus non-specific binding, and is graphed for each data point as a percentage of specific binding occurring in the absence of any competitor.
(§3) Curve fitting and statistical analyses for in vitro experiments were performed using GraphPad Prism™ version 5.0b (GraphPad Software Inc., San Diego, Calif.). The Cheng-Prusoff equation [45] was used to convert the experimental IC50 values obtained from competition receptor binding experiments to Ki values, a quantitative measure of receptor affinity. Non-linear regression for one-site competition was used to determine the IC50 for competition receptor binding. Curve fitting of concentration-effect curves via non-linear regression was also employed to determine the EC50 (a measure of potency) and Emax (a measure of efficacy) for [^35S]GTPγS concentration-effects experiments. […] Data are expressed as mean±SEM. The Student's t-test was used to determine statistical significance (P<0.05) between two groups, while a one-way ANOVA, followed by Tukey's Multiple Comparison post-hoc test, was used to determine statistical significance (P<0.05) between three or more groups.
(§4) The prepared analogues were subjected to in vitro pharmacological testing, which included receptor binding and functional assays at both cannabinoid receptors. Initial receptor binding screens at both CB1Rs and CB2Rs were conducted for the analogues prepared.

CB1Rs [2] = molecular target: T1, CB1Rs; test: [35S]GTPγS binding assay (G-protein activation) in mouse brain homogenates; assay type: biochemical; details: for [35S]GTPγS Binding, +O-2050 (1 μM): 1 μM cannabinoid (100 nM for CP-55,940) co-incubated with CB1R antagonist O-2050 1 μM; for [35S]GTPγS Binding, 10 μM: receptor-saturating concentration 10 μM
Experimental: as §1
[^35S]GTPγS binding was performed as previously described. Briefly, 25 μg of mouse brain homogenates were incubated for 30 minutes at 30° C. with 0.1 nM [^35S]GTPγS, 10 μM GDP, and either cannabinoid+/−antagonist, 10 μM unlabeled GTPγS (non-specific binding) or vehicle (total binding), in triplicate, in a volume of 1 mL of buffer containing 20 mM HEPES, 10 mM MgCl2, 100 mM NaCl, 20 units/L adenosine deaminase, 0.05% BSA and the appropriate DMSO (0.1%) and/or ethanol (<0.2%) vehicle. Assay buffer containing 100 mM KCl, instead of 100 mM NaCl, was used to increase basal G-protein activity in experiments examining inverse agonism. Reactions were terminated by quick vacuum filtration through Whatman GF/B glass fiber filters, followed by five washes with ice-cold buffer (20 mM HEPES, 0.05% BSA). Filters were immediately placed into 7 mL scintillation vials to which 4 mL of ScintiVerse™ BD Cocktail scintillation fluid was added. Bound radioactivity was determined after overnight incubation at room temperature and shaking by liquid scintillation spectrophotometry with an efficiency of 93% (Tri Carb 2100 TR Liquid Scintillation Analyzer, Packard Instrument Company, Meriden, Conn.). Specific binding is expressed as picomoles of [^35S]GTPγS bound per mg of protein.
as §3

[3] = molecular target: CB1Rs endogenously expressed in Neuro2A cells (Mus musculus (Mouse), UniProt P47746); test: Adenylyl cyclase (AC) inhibition via CB1Rs endogenously expressed in Neuro2A cells; assay type: cell-based
hCB2Rs [4] = molecular target: T2, hCB2Rs (Homo sapiens (Human), UniProt P34972); test: Competition receptor binding with [3H]CP-55,940 in CHO-hCB2 cell homogenates; details: Table 3; read-out: hCB2R Ki
Experimental: as §2, §4

hCB2Rs [5] = molecular target: T2, hCB2Rs; test: Inhibition of forskolin-stimulated cAMP production (adenylyl cyclase) in intact CHO-hCB2R cells; assay type: cell-based; details: 10 μM, CHO cell transfected with hCB2 receptors; read-out: AC-inhibition at CB2Rs
Experimental: Adenylyl cyclases are a family of membrane-bound enzymes that catalyze the intracellular production of the second messenger cAMP from ATP. Adenylyl cyclase activity is modulated by activated G-proteins: Gs-proteins stimulate activity, while Gi/o-proteins are inhibitory. Thus, agonists of G-protein coupled receptors (GPCRs) coupled to Gi/o-proteins, such as hCB2Rs, decrease cAMP production due to inhibition of adenylyl cyclase activity. In this assay, intact CHO-hCB2R cells are preincubated with [^3H]-adenine and treated with forskolin (10 or 30 μM) to stimulate adenylyl cyclase activity.
A functional assay screen for the inhibition of adenylate cyclase (AC) activity was chosen as the subsequent assay. […] Reaching full-receptor occupancy, which is predicted to produce maximal efficacy, is desirable at 10 μM concentration of all the compounds was used.

NIH Swiss mice [6] = test: Core body temperature by biotelemetry (cannabinoid tetrad, hypothermia); assay type: in vivo, mouse; details: i.p.
Experimental: Prior to surgery (see below), male NIH Swiss mice (Harlan Sprague Dawley Inc., Indianapolis, Ind.), weighing approximately 25-30 g, were housed 3 animals per Plexiglas® cage (15.24×25.40×12.70 cm) in a temperature-controlled room in an Association for Assessment and Accreditation of Laboratory Animal Care (AAALAC) accredited animal facility at the University of Arkansas for Medical Sciences. Room conditions were maintained at 22±2° C. and 45-50% humidity. Lights were set to a 12-h light/dark cycle. Animals were fed Lab Diet rodent chow (Laboratory Rodent Diet #5001, PMI Feeds, Inc., St. Louis, Mo.) and water ad libitum throughout testing Animals were acclimated to the laboratory environment for ˜7 days prior to experiments, and to the biotelemetry chambers for at least 2 hours prior to initiation of data acquisition. All test conditions used groups of 5 or 6 mice, and all mice were drug-naïve (with the exception of surgical anesthetics) prior to testing.
Cannabinoid effects on core temperature and locomotor activity were measured using surgically-implanted biotelemetry probes. Following appropriate anesthetization with ketamine (100 mg/kg, intraperitoneal [i.p.]) and xylazine (10 mg/kg, i.p.), the abdominal area of each mouse was shaved and sanitized with iodine swabs. A rostral-caudal cut approximately 1.5 cm in length was made with skin scissors, providing access to the intraperitoneal cavity. A cylindrical glass-encapsulated radiotelemetry probe (model ER-4000 E-Mitter, Mini Mitter Co., Inc., Bend, Oreg.) was then inserted, and the incision was closed using absorbable 5-0 chromic gut suture material. At least 7 days were imposed between surgery and experimental observation of cannabinoid effects to allow incisions to heal and mice to recover normal body weights. Following surgery, implanted mice were individually housed in Plexiglas® mouse cages (15.24×25.40×12.70 cm) for the duration of all temperature and locomotor activity experiments Implanted transmitters produced activity- and temperature-modulated signals that were transmitted to a receiver (model ER-4000 Receiver, Mini Mitter Co., Inc., Bend, Oreg.) underneath each mouse cage. Receivers were housed in light- and sound-attenuating cubicles (Med Associates model ENV-022MD, St. Albans, Vt.) equipped with exhaust fans, which further masked ambient laboratory noise. On experimental days, mice were weighed, marked, and returned to their individual cages during which at least 1 hr of baseline data were collected. […]. Mice were then placed into a new cage with fresh bedding to stimulate exploratory behavior. Temperature and locomotor activity data were collected at regular 5-min intervals and processed simultaneously by the Vital View data acquisition system (Mini Mitter Co., Inc., Bend, Oreg.) for at least 10 hrs.
For core body temperature experiments, the area under the curve (AUC) was calculated using a trapezoidal rule from 0-500 minutes, and statistical significance (P<0.05) was determined using a one-way ANOVA, followed by Tukey's HSD post-hoc test. For locomotor activity, total locomotor counts were summed from 0-800 minutes. Because locomotor, analgesia and catalepsy data were not normally distributed, Kruskal-Wallis one-way ANOVA on ranks were performed, and all pair-wise comparisons were then made using the Tukey's HSD tests. In vivo statistical calculations were performed using SigmaStat 3 (Systat Software, Inc., San Jose, Calif.).

NIH Swiss mice [7] = test: Locomotor activity by biotelemetry (cannabinoid tetrad); assay type: in vivo, mouse; details: 10 mg/kg, i.p.
[8] = mouse brain homogenates, 0.2 nM [3H]CP-55,940, read-out: [3H]CP binding Ki

## O=C(O)CCCn1cc(C(=O)c2cccc3ccccc23)c2ccccc21 [Compound M6, 4-(3-(1-naphthoyl)-1H-indole-1-yl)-1-butanoic acid, reference compound]
CB1Rs [1]; concentrations as high as 10 μM
  displacement of [3H]CP-55,940 specific binding: less than 10%

## O=C(c1cccc2ccccc12)c1cn(CCCCO)c2ccccc12 [Compound M5]
CB1Rs [1]; [8]
  Ki: 224 ± 9 nM
CB1Rs [2]
  [35S]GTPγS Binding, 1 μM: 0.12 ± 0.00 pmol/mg
  [35S]GTPγS Binding, +O-2050 (1 μM): 0.05 ± 0.01 pmol/mg
  [35S]GTPγS Binding, 10 μM: 0.16±0.02 pmole/mg and 0.16 ± 0.02^a pmole/mg

## CCCCn1cc(C(=O)Cc2ccc(OC)cc2)c2cccc(OC)c21
other
  melting point: 72 to 74 °C

## CCCCn1cc(C(=O)Cc2ccc(F)cc2)c2cccc(OC)c21 [TV-5-129, 1-(1-butyl-7-methoxy-1H-indol-3-yl)-2-(4-fluorophenyl)ethanone]
CB1Rs [1]; Table 3, read-out: mCB1R Ki
  Ki: 387 ± 77 nM
[3]; N2a, 10 μM, Neuro2A cells
  inhibition at 10 µM: -4%
hCB2Rs [4]
  Ki: 281 nM
hCB2Rs [5]
  inhibition at 10 µM: 22.1%

## CCCCn1cc(C(=O)Cc2ccccc2F)c2cccc(OC)c21
other
  melting point: 86 to 88 °C

## CCCCn1cc(-c2cccc3ccccc23)c2cccc(OC)c21
other
  melting point: 74 to 76 °C

## CCCCCn1cc(C(=O)c2cccc3ccccc23)c2ccccc21 [JWH-018]
CB1Rs [2]; JWH-018 alone, read-out: EC50 of JWH-018 for G-protein activation, alone
  EC50: 8 nM
CB1Rs [2]; read-out: EC50 of JWH-018 in the presence of M4, + M4 1 μM
  EC50: 178 nM
CB1Rs [2]; read-out: EC50 of JWH-018 in the presence of M4, + M4 3 μM
  EC50: 263 nM
CB1Rs [2]; read-out: EC50 of JWH-018 in the presence of M4, + M4 10 μM
  EC50: 1560 nM
NIH Swiss mice [6]; JWH-018 3 mg/kg, alone
  maximal decrease in core body temperature to: 30.28+/−0.71 °C

## COc1cccc2c(C(=O)c3cccc4ccccc34)cn(CCN3CCOCC3)c12
other
  melting point: 149 to 152 °C

## CC1=CC[C@@H]2[C@@H](C1)c1c(O)cc(CC#CCCCNS(C)(=O)=O)cc1OC2(C)C [Compound O-2050, reference compound]
[3]; 1 μM concentration
  antagonism of AC-inhibition produced by the CB1R full agonist JWH-073: antagonized AC-inhibition

## CCCCn1cc(C(=O)Cc2cccc3ccccc23)c2cccc(OC)c21
other
  melting point: 110 to 113 °C

## CCCCn1cc(C(=O)c2cccc3ccccc23)c2ccc(O)cc21 [Compound M3]
CB1Rs [1]; mouse brain homogenates, 0.2 nM [3H]CP-55,940, read-out: CB1R affinity (Ki)
  Ki: 1280 ± 470 nM
CB1Rs [2]
  [35S]GTPγS Binding, 1 μM: 0.04 ± 0.00 pmol/mg
  [35S]GTPγS Binding, +O-2050 (1 μM): 0.02 ± 0.01 pmol/mg
  [35S]GTPγS Binding, 10 μM: 0.11±0.02 pmole/mg and 0.11 ± 0.02^a,b pmole/mg

## CCCCn1cc(C(=O)Cc2ccccc2)c2cccc(OC)c21
other
  melting point: 65 to 68 °C

## CCCCn1cc(C(=O)c2cccc3ccccc23)c2c(O)cccc21 [Compound M1]
CB1Rs [1]; [8]
  Ki: 14.1 ± 3.5 nM
CB1Rs [2]
  [35S]GTPγS Binding, 1 μM: 0.17 ± 0.01 pmol/mg
  [35S]GTPγS Binding, +O-2050 (1 μM): 0.07 ± 0.01 pmol/mg
  [35S]GTPγS Binding, 10 μM: 0.14±0.01 pmole/mg and 0.14 ± 0.01^a pmole/mg
CB1Rs [2]; concentration-effect, mouse brain homogenates
  [35S]GTPγS Binding Emax: 0.14 ± 0.01^b pmole/mg
CB1Rs [2]; concentration-effect, mouse brain homogenates, read-out: [35S]GTPγS Binding EC50
  EC50: 113 ± 29.2 nM
NIH Swiss mice [6]; 10 mg/kg
  minimum core body temperature recorded: 30.32±0.66 °C
  time to maximal core body temperature reduction: 58.00 ± 4.64 min
NIH Swiss mice [7]
  locomotor activity: reduction of locomotor activity similar to that observed with administration of JWH-073
